Test results published in PubChem BioAssay AID1963847 (Molecular Pharmacology Branch, DTP, NCI, 2024).

Tested on: 415267-285-R-J2-PDC complex spheroid viability
Test: Anticancer human tumor 415267-285-R-J2-PDC patient-derived breast carcinoma cell line growth inhibition [POLQ]
Conditions: for IC50: curve of first compound; for viability, T/C: stronger effect = lower value
Method in brief: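 Three-cell-type spheroids modelling solid tumor plus stroma served as the readout system; POL inhibitors were tested individually and in combination, concentration ranges set by clinical Cmax where known.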
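Note: spheroids exposed to compounds for one week before readout.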
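Throughout, for viability, T/C: luminescence used as stand-in measure of viable cells; 100% = DMSO vehicle control viability.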

## CCc1cc2c(N3CCc4c(cc(Cn5ccnc5)cc4-c4cn(C)nc4C(F)(F)F)C3=O)cc(C)nc2c(OC)n1 + Cc1cccc(N(C)C(=O)C2C(O)CCN2c2nc(C)cc(C(F)(F)F)c2C#N)c1
Second compound 0.0316 µM
  IC50: > 10 µM
Second compound 0.1 µM
  IC50: > 10 µM
Second compound 0.316 µM
  IC50: > 10 µM
Second compound 1 µM
  IC50: > 10 µM
Second compound 3.16 µM
  IC50: > 10 µM
Second compound 10 µM
  IC50: > 10 µM
Second compound 0.0316 µM, first compound 0.0316 µM
  viability, T/C: 92.6%
Second compound 0.0316 µM, first compound 0.1 µM
  viability, T/C: 98.2%
Second compound 0.0316 µM, first compound 0.316 µM
  viability, T/C: 82%
Second compound 0.0316 µM, first compound 1 µM
  viability, T/C: 91.5%
Second compound 0.0316 µM, first compound 3.16 µM
  viability, T/C: 90%
Second compound 0.0316 µM, first compound 10 µM
  viability, T/C: 77.1%
Second compound 0.1 µM, first compound 0.0316 µM
  viability, T/C: 93%
Second compound 0.1 µM, first compound 0.1 µM
  viability, T/C: 89.3%
Second compound 0.1 µM, first compound 0.316 µM
  viability, T/C: 83%
Second compound 0.1 µM, first compound 1 µM
  viability, T/C: 89.8%
Second compound 0.1 µM, first compound 3.16 µM
  viability, T/C: 81%
Second compound 0.1 µM, first compound 10 µM
  viability, T/C: 71.7%
Second compound 0.316 µM, first compound 0.0316 µM
  viability, T/C: 97.7%
Second compound 0.316 µM, first compound 0.1 µM
  viability, T/C: 91.4%
Second compound 0.316 µM, first compound 0.316 µM
  viability, T/C: 95.1%
Second compound 0.316 µM, first compound 1 µM
  viability, T/C: 89.7%
Second compound 0.316 µM, first compound 3.16 µM
  viability, T/C: 85.1%
Second compound 0.316 µM, first compound 10 µM
  viability, T/C: 80.2%
Second compound 1 µM, first compound 0.0316 µM
  viability, T/C: 102%
Second compound 1 µM, first compound 0.1 µM
  viability, T/C: 81.4%
Second compound 1 µM, first compound 0.316 µM
  viability, T/C: 84.5%
Second compound 1 µM, first compound 1 µM
  viability, T/C: 91.7%
Second compound 1 µM, first compound 3.16 µM
  viability, T/C: 88.7%
Second compound 1 µM, first compound 10 µM
  viability, T/C: 74.7%
Second compound 3.16 µM, first compound 0.0316 µM
  viability, T/C: 92.3%
Second compound 3.16 µM, first compound 0.1 µM
  viability, T/C: 99.7%
Second compound 3.16 µM, first compound 0.316 µM
  viability, T/C: 90.7%
Second compound 3.16 µM, first compound 1 µM
  viability, T/C: 89.8%
Second compound 3.16 µM, first compound 3.16 µM
  viability, T/C: 84.8%
Second compound 3.16 µM, first compound 10 µM
  viability, T/C: 87.9%
Second compound 10 µM, first compound 0.0316 µM
  viability, T/C: 90.3%
Second compound 10 µM, first compound 0.1 µM
  viability, T/C: 95.7%
Second compound 10 µM, first compound 0.316 µM
  viability, T/C: 89.2%
Second compound 10 µM, first compound 1 µM
  viability, T/C: 91.7%
Second compound 10 µM, first compound 3.16 µM
  viability, T/C: 81.2%
Second compound 10 µM, first compound 10 µM
  viability, T/C: 81.7%

## CC(=O)O[C@H]1C(=O)[C@@]2(C)[C@H]([C@H](OC(=O)c3ccccc3)[C@]3(O)C[C@H](OC(=O)[C@H](O)[C@@H](NC(=O)c4ccccc4)c4ccccc4)C(C)=C1C3(C)C)[C@]1(OC(C)=O)CO[C@@H]1C[C@@H]2O + COC1C(OC(N)=O)C(O)C(Oc2ccc3c(O)c(NC(=O)c4ccc(O)c(CC=C(C)C)c4)c(=O)oc3c2C)OC1(C)C
Second compound 0.0316 µM
  IC50: < 0.00949 µM
Second compound 0.1 µM
  IC50: < 0.00949 µM
Second compound 0.316 µM
  IC50: < 0.00949 µM
Second compound 1 µM
  IC50: < 0.00949 µM
Second compound 3.16 µM
  IC50: < 0.00949 µM
Second compound 10 µM
  IC50: < 0.00949 µM
Second compound 0.0316 µM, first compound 0.00949 µM
  viability, T/C: 13.6%
Second compound 0.0316 µM, first compound 0.03 µM
  viability, T/C: 9.68%
Second compound 0.0316 µM, first compound 0.0949 µM
  viability, T/C: 8.14%
Second compound 0.0316 µM, first compound 0.3 µM
  viability, T/C: 6.55%
Second compound 0.0316 µM, first compound 0.949 µM
  viability, T/C: 8.38%
Second compound 0.0316 µM, first compound 3 µM
  viability, T/C: 8.03%
Second compound 0.1 µM, first compound 0.00949 µM
  viability, T/C: 11%
Second compound 0.1 µM, first compound 0.03 µM
  viability, T/C: 8.15%
Second compound 0.1 µM, first compound 0.0949 µM
  viability, T/C: 7.43%
Second compound 0.1 µM, first compound 0.3 µM
  viability, T/C: 7.95%
Second compound 0.1 µM, first compound 0.949 µM
  viability, T/C: 8.29%
Second compound 0.1 µM, first compound 3 µM
  viability, T/C: 9.45%
Second compound 0.316 µM, first compound 0.00949 µM
  viability, T/C: 13.1%
Second compound 0.316 µM, first compound 0.03 µM
  viability, T/C: 9.7%
Second compound 0.316 µM, first compound 0.0949 µM
  viability, T/C: 7.34%
Second compound 0.316 µM, first compound 0.3 µM
  viability, T/C: 8.56%
Second compound 0.316 µM, first compound 0.949 µM
  viability, T/C: 8.09%
Second compound 0.316 µM, first compound 3 µM
  viability, T/C: 7.17%
Second compound 1 µM, first compound 0.00949 µM
  viability, T/C: 12.9%
Second compound 1 µM, first compound 0.03 µM
  viability, T/C: 8.82%
Second compound 1 µM, first compound 0.0949 µM
  viability, T/C: 8.23%
Second compound 1 µM, first compound 0.3 µM
  viability, T/C: 8.01%
Second compound 1 µM, first compound 0.949 µM
  viability, T/C: 8.58%
Second compound 1 µM, first compound 3 µM
  viability, T/C: 7.75%
Second compound 3.16 µM, first compound 0.00949 µM
  viability, T/C: 13%
Second compound 3.16 µM, first compound 0.03 µM
  viability, T/C: 10.4%
Second compound 3.16 µM, first compound 0.0949 µM
  viability, T/C: 8%
Second compound 3.16 µM, first compound 0.3 µM
  viability, T/C: 7.65%
Second compound 3.16 µM, first compound 0.949 µM
  viability, T/C: 8.33%
Second compound 3.16 µM, first compound 3 µM
  viability, T/C: 8.3%
Second compound 10 µM, first compound 0.00949 µM
  viability, T/C: 24.1%
Second compound 10 µM, first compound 0.03 µM
  viability, T/C: 9.1%
Second compound 10 µM, first compound 0.0949 µM
  viability, T/C: 7.75%
Second compound 10 µM, first compound 0.3 µM
  viability, T/C: 8.73%
Second compound 10 µM, first compound 0.949 µM
  viability, T/C: 6.75%
Second compound 10 µM, first compound 3 µM
  viability, T/C: 9.23%
